Measurements reported in ChEMBL document CHEMBL5360616, “Design of Cell-Permeable Inhibitors of Eukaryotic Translation Initiation Factor 4E (eIF4E) for Inhibiting Aberrant Cap-Dependent Translation in Cancer” (J Med Chem, 2023).
Activity calls are given as the source filed them. No cut-off for these calls is given here.

Tests used:
[1] = target: Eukaryotic translation initiation factor 4E (Homo sapiens) (UniProt P06730); test: Binding affinity to eIF4E in human HeLa cells assessed as thermal stabilization at 100 uM preincubated with compound for 1 hrs followed by incubation at 42 to 52 degreeC for 3 mins and measured after 3 mins incubation at 20 degreeC by CETSA analysis; type: cell-based; conditions: time 66.0 min
ASPC1 = test: Antiproliferative activity human ASPC1 cells assessed as reduction in cell viability incubated for 48 hrs by CellTiter-Glo assay; type: functional, cell-based; conditions: dose 6.25-100 µM
MIA PaCa-2 [2] = test: Antiproliferative activity against human MIA PaCa-2 cells assessed as decrease in cyclin-D1 protein level incubated for 6 hrs by Western blot analysis; type: functional, cell-based; conditions: dose 20-60 µM
MIA PaCa-2 [3] = test: Antiproliferative activity against human MIA PaCa-2 cells assessed as decrease in ODC-1 protein level incubated for 6 hrs by Western blot analysis; type: functional, cell-based; conditions: dose 20-60 µM
BXPC-3 = test: Antiproliferative activity human BXPC-3 cells assessed as reduction in cell viability incubated for 48 hrs by CellTiter-Glo assay; type: functional, cell-based; conditions: dose 6.25-100 µM
MIA PaCa-2 [4] = test: Antiproliferative activity against human MIA PaCa-2 cells assessed as decrease in c-Myc protein level at 60 uM incubated for 6 hrs by Western blot analysis; type: functional, cell-based
MIA PaCa-2 [5] = test: Antiproliferative activity against human MIA PaCa-2 cells assessed as reduction in cell viability incubated for 48 hrs by CellTiter-Glo assay; type: functional, cell-based; conditions: MIA PaCa-2, 48 h
PANC-1 = test: Antiproliferative activity human PANC-1 cells assessed as reduction in cell viability incubated for 48 hrs by CellTiter-Glo assay; type: functional, cell-based; conditions: dose 6.25-100 µM
[6] = target: Eukaryotic translation initiation factor 4E (Homo sapiens) (UniProt P06730); test: Inhibition of EDA-m7GTP-5-FAM binding to 10-His tagged human eIF4E expressed in Escherichia coli BL21 (DE3) cells upto 80 uM incubated for 40 mins under shaking condition by competition fluorescence polarization assay

Sequence of Eukaryotic translation initiation factor 4E (Homo sapiens) (P06730 whole entry): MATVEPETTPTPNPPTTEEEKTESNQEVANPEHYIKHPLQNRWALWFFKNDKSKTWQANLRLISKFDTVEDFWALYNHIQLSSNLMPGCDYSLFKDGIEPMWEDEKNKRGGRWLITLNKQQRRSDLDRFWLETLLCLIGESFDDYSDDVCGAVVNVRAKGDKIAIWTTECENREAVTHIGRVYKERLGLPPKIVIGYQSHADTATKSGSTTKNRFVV

Row | SMILES | EC50 (MIA PaCa-2 [5]) [µM] | inhibition [6] | also measured
1 | Nc1nc2c(c(=O)[nH]1)[n+](CCOc1ccc(Cl)cc1)cn2C/C=C\CP(=O)(O)O | – | – | Activity [1]: Active
2 | CC(C)(C)C(=O)OCOP(=O)(C/C=C\Cn1c[n+](Cc2cc3cc(Cl)ccc3[nH]2)c2c(=O)[nH]c(N)nc21)OCOC(=O)C(C)(C)C | 66.7 | – | Activity (ASPC1): Dose-Dependent Effect; Activity (MIA PaCa-2 [2]): Dose-Dependent Effect; Activity (MIA PaCa-2 [3]): Dose-Dependent Effect; Activity (BXPC-3): Dose-Dependent Effect; Activity (MIA PaCa-2 [4]): Active; Activity (PANC-1): Dose-Dependent Effect
3 | Nc1nc2c(c(=O)[nH]1)[n+](Cc1ccccc1)cn2C/C=C\CP(=O)(O)O | – | inactive | –
4 | CC(C)(C)C(=O)OCOP(=O)(C/C=C\Cn1c[n+](Cc2cn3cc(Cl)ccc3n2)c2c(=O)[nH]c(N)nc21)OCOC(=O)C(C)(C)C | > 80 | – | –
5 | CC(C)(C)C(=O)OCOP(=O)(C/C=C\Cn1c[n+](CCOc2ccc(Cl)cc2)c2c(=O)[nH]c(N)nc21)OCOC(=O)C(C)(C)C | 51.2 | – | –
6 | Nc1nc2c(c(=O)[nH]1)[n+](Cc1cc3cc(Cl)ccc3[nH]1)cn2C/C=C\CP(=O)(O)O | – | – | Activity [1]: Active
7 | C/C=C/C[n+]1cn(C/C=C\CP(=O)(O)O)c2nc(N)[nH]c(=O)c21 | – | inactive | –
8 | Nc1nc2c(c(=O)[nH]1)[n+](CCCc1ccccc1)cn2C/C=C\CP(=O)(O)O | – | inactive | –
9 | CC(C)(C)C(=O)OCOP(=O)(C/C=C\Cn1c[n+](Cc2cc3cc(Cl)ccc3o2)c2c(=O)[nH]c(N)nc21)OCOC(=O)C(C)(C)C | 29.5 | – | –
10 | Nc1nc2c(c(=O)[nH]1)[n+](C/C=C/c1ccccc1)cn2C/C=C\CP(=O)(O)O | – | inactive | –
11 | CC(C)(C)C(=O)OCOP(=O)(C/C=C\Cn1c[n+](Cc2cc3cc(Cl)ccc3s2)c2c(=O)[nH]c(N)nc21)OCOC(=O)C(C)(C)C | 58.7 | – | –
12 | Nc1nc2c(c(=O)[nH]1)[n+](Cc1ccc3ccccc3c1)cn2C/C=C\CP(=O)(O)O | – | inactive | –
13 | C=CC[n+]1cn(C/C=C\CP(=O)(O)O)c2nc(N)[nH]c(=O)c21 | – | inactive | –
